In this assay the test system is Saccharomyces cerevisiae (Ethanol Red). Particulars: yeast 2.4 g/L, glucose concentration at 10%. The method, then:
Various concentrations of yeast were added to glucose based liquid media with and without NaHCO3 and the fermentation process monitored for glucose consumption and ethanol production.
The fermentation media consisted of 25 gm of glucose and 1 ml of urea (45%) in 250 ml of water. The pH of the system was adjusted to 4.5 with 1 M H2SO4. The temperature of incubation was about 32° C., and the tests were conducted for 72 hours. The tests compared fermentation systems with and without sodium bicarbonate (NaHCO3). NaHCO3 was added to final concentrations of 200 ppm or 500 ppm in the test vessels. […] In some vessels the pH was readjusted to 4.5. Yeasts (Saccharomyces cerevisiae (Ethanol Red) diluted 1 to 5 in water, were added to the various test vessels at 0.5, 2, 3, 4 and 5 ml. Yeasts at 3 ml in the vessel corresponds to 2.4 g/L. The fermentation media vessels were monitored for glucose utilization and ethanol production via HPLC measurement at 2, 4, 6, 24, 48 and 72 hours.

Where two headings read alike, the source gives them in different places.

On to `O=C([O-])O.[Na+]` [SBC, sodium bicarbonate], for which the “Ethanol (% after 48 hours)” value by setting is: (SBC 200 ppm) 4.8%; (SBC 500 ppm) 4.8%.

The values above are taken from patent US8679803B2, “Glucose conversion to ethanol via yeast cultures and bicarbonate ions” (Church & Dwight Co., Inc., priority 2007, dated 2014).
